In patent US5200329A, “Method of hydroxylating 3-[(4,7-dichlorobenzoxazol-2-yl)methyl]amino-5-ethyl-6-methyl-2-(1H)-pyr idinone by incubation with liver slices” (Merck & Co., Inc., priority 1992, dated 1993):

Columns and labels:
[1] = target: T1, recombinant HIV reverse transcriptase (HIV RTR) (Human immunodeficiency virus type 1 group M subtype B, UniProt P04585); test: Reverse Transcriptase Assay (incorporation of tritiated deoxyguanosine monophosphate into acid-precipitable cDNA); assay type: biochemical; conditions: poly r(C).oligo d(G)12-18 and dGTP at about Km; 37° C., 45 minutes
T1 construct: recombinant HIV reverse transcriptase (HIV RTR)
Procedure: The assay measures the incorporation of tritiated deoxyguanosine monophosphate by recombinant HIV reverse transcriptase (HIV RTR) (or other RT) into acid-precipitable cDNA at the Km values of dGTP and poly r(C).oligo d(G)12-18.
Thirty uL of a reaction mixture containing equal volumes of: 500 mM Tris.HCl (pH 8.2), 300 mM MgCl2, 1200 mM KCl, 10 mM DTT, 400 μg/mL poly r(c).oligo d(G) [prepared by dissolving 1.5 mg (25 U) poly r(C).oligo d(G) in 1.5 ml sterile distilled H2 O and diluting to 400 μg/ml], 0.1 μCi/μl [^3 H] dGTP, 160 μM dGTP, was added to 10 μl sterile distilled H2 O, and 2.5 μl of potential inhibitor. An aliquot of 10 μL of 5 nM purified HIV RTR was added to initiate thereaction. The mixture was incubated at 37° C. for 45 minutes.
After incubation is complete, the tubes were cooled in ice for 5 minutes. Ice-cold 13% TCA containing 10 mM NaPPi (200 μl) are added and the mixture incubated on ice for 30 minutes. The precipitated cDNA is removed by filtration using presoaked glass filters [TCA, NaPPi ]. The precipitate is then washed with 1N HCl, 10 mM NaPPi.
The filter discs are then counted in a scintillation counter.
Under these conditions [dGTP] and poly r(C).oligo d(G)12-18 each are approximately equal to the appropriate Km value. Approximately 5-6,000 cpm of [^3 H] GMP are incorporated into acid-precipitable material. The RT reaction is concentration- and time-dependent. […] The calculated IC50 value for the compounds (Ia) and (Ib) of this incertion are as follows: […]

[2] = Incubation With Human Liver Slices (metabolite formation by HPLC); assay type: in vitro ADME; conditions: 2.85 μmol compound (II), 1.25 g wet weight liver slices (donor), Williams' Medium E, 37° C., four hours
Procedure: Compound (II) (2.85 μmol) was incubated with liver slices (1.25 g wet weight) from a human donor in 20 ml of Williams' Medium E at 37° C. under an atmosphere of 5% CO2 in air for four hours. The metabolites were extracted into ethyl acetate followed by evaporation of the solvent. The residue was reconstituted in methanol and compared on HPLC with an extract of rat liver slice incubation of compound (II). The HPLC effluents were monitored by a UV-diode array detector, and fractionated for liquid scintillation spectrophotometry.

Compound	IC50 [1]	formation of metabolites indicated by HPLC comparisons of UV and radioactivity profiles [2]
Cc1[nH]c(=O)c(NCc2nc3c(Cl)ccc(Cl)c3o2)cc1C(C)O (racemic) [Ia, 3-[(4,7-dichlorobenzoxazol-2-yl)methylamino]-5-(1-hydroxyethyl)-6-methylpyridin-2(1H)-one]	1050 nM	–
CCc1cc(NCc2nc3c(Cl)ccc(Cl)c3o2)c(O)nc1C [Compound II, 3-[(4,7-dichlorobenzoxazol-2-yl)-methyl]amino-5-ethyl-6-methyl-2(1H)-pyridinone]	20 nM	formation of Ia and Ib in the human liver slices incubation
CCc1cc(NCc2nc3c(Cl)ccc(Cl)c3o2)c(=O)[nH]c1CO [Ib, 3-[(4,7-dichlorobenzoxazole-2-yl)methylamino]-5-ethyl-6-hydroxymethylpyridi n-2(1H)-one]	14 nM	–
